Experimental data published in article PMC9541495, “Understanding the interaction of 14‐3‐3 proteins with hDMX and hDM2: a structural and biophysical study” (The Febs Journal, 2022).
Where a SMILES comes first, the peptide text is derived from it. [ ]: non-standard residue; d: D form. pS = N[C@@H](COP(=O)(O)O)C(=O)O

Legend:
14‐3‐3η [1] = target: T1, 14‐3‐3η (Homo sapiens, UniProt Q04917); assay: Fluorescence anisotropy direct titration, 14‐3‐3η; type: binding
T1 construct: full‐length proteins were concentrated by centrifugation, rebuffered in HEPES buffer; made in house; host or cells: E. coli BL21(DE3)
T1 sequence (Q04917 1-246): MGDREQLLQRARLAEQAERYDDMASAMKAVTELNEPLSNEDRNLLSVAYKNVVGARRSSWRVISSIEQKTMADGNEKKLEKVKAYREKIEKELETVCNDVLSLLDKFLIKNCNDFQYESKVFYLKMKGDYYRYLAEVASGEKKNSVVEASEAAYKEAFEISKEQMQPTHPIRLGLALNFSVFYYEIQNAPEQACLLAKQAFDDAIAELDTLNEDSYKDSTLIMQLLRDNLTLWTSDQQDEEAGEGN
Description: All assays were performed in 384 well plates (each experiment was run in triplicates) and data were collected by Perkin Elmer EnVision 2013 plate reader with excitation at 480 nm (30 nm bandwidth), polarised dichroic mirror at 505 nm and emission at 535 nm (40 nm bandwidth, S and P polarised). Experiments were carried out in HBS buffer (10 mM HEPES, 150 mM NaCl, pH 7.4) + 0.1% Tween 20 + 0.1% BSA). A ½ fold dilution series was performed in the titration, with plates read after 30 min, 4 h and 20–24 h. […] Collected data were processed in Microsoft Excel using the equations below. Total intensity I and anisotropy r were calculated using Equations 1 and 2 for each well. Average anisotropy was plotted against protein concentration using OriginPro and a logistic curve was fitted to give r min and r max. Using Equation 3 anisotropy was converted into fraction bound and multiplied by peptide concentration to be fitted in Origin using Equation 5 to obtain K d values.

14‐3‐3η [2] = target: T1, 14‐3‐3η; assay: Isothermal titration calorimetry, peptide into 14‐3‐3η; type: binding; settings: 25 °C, HEPES pH 7.5
Description: (§1) […]
Moreover, such experiments provide thermodynamic data and as a label‐free method require no immobilization/functionalization of any of the binding partners. Here data were obtained by titration of the peptide into 14‐3‐3η protein (Fig. 2D,E and Fig. S7).
Isothermal titration calorimetry experiments were carried out on a MicroCal iTC200 in HBS buffer at 25°C (25 mM HEPES pH 7.5, 100 mM NaCl, 10 mM MgCl2, 0.5 mM TCEP). Peptides ([…]) in the syringe were titrated into a cell containing 14‐3‐3η ([…]). Data were fitted using MICROCAL software (Northampton, MA, USA) to give binding constant (K d), enthalpy (ΔH), entropy (ΔS) and binding stoichiometry (n).

14‐3‐3η [3] = target: T1, 14‐3‐3η; assay: Surface plasmon resonance on immobilized 14‐3‐3η; type: binding; settings: multicycle kinetic format, Langmuir model, 25 °C
Description: as §1
Experiments were performed at 25 °C using a Biacore T200 instrument (GE Healthcare, Buckinghamshire, UK). For immobilization, the running buffer was HBS buffer (HEPES, NaCl, Tween‐20, pH 7.4). 14‐3‐3η was immobilized on an NTA sensor chip (Series S Sensor Chip GE Healthcare) using NTA reagent and Biacore Amine Coupling Kit. Briefly, 14‐3‐3η was diluted to 0.2 mg·mL^−1 and 200 µL was injected over a chip surface that had been activated with an injection of Ni^2+, followed by 140 µL of 1 : 1 NHS/EDC. A 30 µL of 0.5 M ethanolamine was then injected to cap the excess free amine groups. […] Then, 20 µL of these solutions were injected over a 14‐3‐3η immobilized surface for 1 min at the […] flow rate, followed by a 4 min regeneration period with HBS buffer. Kinetics and the binding affinity were calculated using the BIACORE evaluation software (Buckinghamshire, UK). Standard dose–response curves were fitted by plotting RUs against the peptide concentration.

14‐3‐3η [4] = target: T1, 14‐3‐3η; assay: Analytical ultracentrifugation (sedimentation velocity) of 14‐3‐3η with peptide; settings: AUC‐SV; 14 μM 14‐3‐3η, protein : peptide 1 : 1 and 1 : 0.5; 10 mM HEPES, 150 mM NaCl, pH 7.4; 25 °C
Source text: The 1 : 1 stoichiometry between the doubly phosphorylated peptides and 14‐3‐3 contrasts with previously reported work, although it may be that the length and/or accessible conformation of the hDMX and hDM2 peptides are incompatible with the simultaneous engagement of both 14‐3‐3 protomers in the dimeric structure. To further explore this behaviour and understand the basis of cooperativity and affinity enhancement we performed additional experiments. To exclude the possible formation of higher‐order oligomers (e.g. 14‐3‐3 tetramers held together by two peptides bridging two dimers), an analytical ultracentrifugation experiment was performed. The 14‐3‐3η (at the concentration of 14 μM, approximately corresponding to the second binding events observed in FA, Fig. 2C) and hDMX335‐373 ^pSer342/pSer367 peptide in two different concentration ratios (1 : 1 and 1 : 0.5, protein vs. peptide) were analysed. […] The second binding event observed only in fluorescence anisotropy experiments, may represent a further non‐specific binding event or an interaction linked to 14‐3‐3 dimerization and will be investigated in future work.
AUC‐SV experiments were performed using a Beckman Coulter Optima XL‐I ultracentrifuge. […] The diffusion‐deconvoluted sedimentation coefficient distributions c(s) were calculated using the SEDFIT program (Bethesda, MD, USA). […]

all isoforms of 14‐3‐3 = assay: Fluorescence anisotropy assays with all isoforms of 14‐3‐3 (result in words); type: binding, human; settings: FAM tracer peptide 50 nM, 0.1 nM - 300 µM protein, 10 mM HEPES, 150 mM NaCl, 0.1% Tween 20, 0.1% BSA pH 7.4; n = 3
Source text: 14‐3‐3 proteins were titrated against a constant concentration of the tracer resulting in an increase of anisotropy upon engaging 14‐3‐3 proteins (Fig. 2A–C for 14‐3‐3 binding hDMX sequences and Figs S4–S6, for 14‐3‐3 binding hDM2 sequences, non‐binding sequence, and unphosphorylated controls). A noteworthy feature of the data is that different maximum anisotropy levels were observed between hDMX or hDM2 peptides and 14‐3‐3 isoforms, indicating different diffusion properties of the fluorophore when bound to the different 14‐3‐3 isoforms. […]
All assays were performed in 384 well plates (each experiment was run in triplicates) and data were collected by Perkin Elmer EnVision […] plate reader with excitation at 480 nm (30 nm bandwidth), polarised dichroic mirror at 505 nm and emission at 535 nm (40 nm bandwidth, S and P polarised). […] A ½ fold dilution series was performed in the titration, with plates read after 30 min, 4 h and 20–24 h. […] Total intensity I and anisotropy r were calculated using Equations 1 and 2 for each well. […]
Figure S4. Fluorescence anisotropy assays for the hDM2 peptides. […]
Figure S5. Fluorescence anisotropy assays for the hDMX144-158pThr151 peptide with all isoforms of 14-3-3. […]

CC[C@H](C)[C@H](NC(=O)[C@H](CC(=O)O)NC(=O)[C@H](CO)NC(=O)[C@@H](NC(=O)[C@H](COP(=O)(O)O)NC(=O)[C@H](CC(C)C)NC(=O)[C@H](CO)NC(=O)[C@H](Cc1c[nH]cn1)NC(=O)[C@@H](NC(=O)[C@H](CC(C)C)NC(=O)[C@H](CCCCN)NC(=O)[C@H](CO)NC(C)=O)[C@@H](C)O)[C@@H](C)O)C(=O)N[C@H](C(=O)N[C@@H](C)C(=O)N[C@H](C(=O)N1CCC[C@H]1C(=O)N[C@@H](CCC(=O)O)C(=O)N[C@@H](CCCCN)C(=O)N[C@@H](CCC(=O)O)C(=O)N[C@@H](CC(N)=O)C(=O)N[C@@H](CCC(=O)O)C(=O)NCC(=O)N[C@@H](CC(N)=O)C(=O)N[C@@H](CC(=O)O)C(=O)N[C@H](C(=O)N1CCC[C@H]1C(=O)N[C@@H](CC(=O)O)C(=O)N[C@@H](CS)C(=O)N[C@@H](CCCNC(=N)N)C(=O)N[C@@H](CCCNC(=N)N)C(=O)N[C@H](C(=O)N[C@H](C(=O)N[C@@H](COP(=O)(O)O)C(=O)N[C@@H](C)C(=O)N1CCC[C@H]1C(=O)N[C@H](C(=O)N[C@H](C(=O)N[C@@H](CCCNC(=N)N)C(=O)N1CCC[C@H]1C(N)=O)C(C)C)C(C)C)[C@@H](C)CC)[C@@H](C)O)C(C)C)[C@@H](C)CC)[C@@H](C)O [hDMX335‐373 ^pSer342/pSer367]
fold higher affinity Kd1 of doubly phosphorylated peptide compared to singly phosphorylated peptide (14‐3‐3η [1]; FA, 14‐3‐3η, compared to hDM2_160‐171 ^pSer166 (hDM2 peptide) or hDMX361‐374 ^pSer367 (hDMX peptide)): 3 fold | ∆G (ITC), 14‐3‐3η (14‐3‐3η [2]; acetyl labelled peptides): -10.7 kcal/mol | n (binding stoichiometry, ITC) (14‐3‐3η [2]; acetyl peptides, 14‐3‐3η): 0.94 | ‐T∆S (ITC) (14‐3‐3η [2]; acetyl peptides, 14‐3‐3η): -5.4 kcal/mol | ∆H (ITC) (14‐3‐3η [2]; acetyl peptides, 14‐3‐3η): -5.28 ± 0.17 kcal/mol | koff (14‐3‐3η [3]): 0.0048 s⁻¹ | kon (14‐3‐3η [3]): 1.51e+06 M⁻¹ s⁻¹ | sedimentation coefficient of 14‐3‐3η with peptide vs protein alone (in words) (14‐3‐3η [4]): remained unchanged

CC[C@H](C)[C@H](NC(=O)[C@@H](NC(=O)[C@H](CCCNC(=N)N)NC(=O)[C@H](CCCNC(=N)N)NC(=O)[C@H](CS)NC(=O)[C@H](CC(=O)O)NC(C)=O)[C@@H](C)O)C(=O)N[C@@H](COP(=O)(O)O)C(=O)N[C@@H](C)C(=O)N1CCC[C@H]1C(=O)N[C@H](C(=O)N[C@H](C(=O)N[C@@H](CCCNC(=N)N)C(=O)N1CCC[C@H]1C(=O)N[C@@H](CCCCN)C(N)=O)C(C)C)C(C)C [hDMX361‐374 ^pSer367] (Ac-DCRRTI[pS]APVVRPK-NH2)
Kd (14‐3‐3η [1]; FA direct titration, FAM‐Ahx tracer peptide 50 nM, pH 7.4, 1:1 fit, n = 3, read-out: K d, 14‐3‐3η): 98.8 ± 4.6 nM | koff (14‐3‐3η [3]): 0.121 s⁻¹ | kon (14‐3‐3η [3]): 389000 M⁻¹ s⁻¹

X‐STSRKRT pT EDDIPTL‐NH2 [hDMX144‐158 ^pThr151, hDMX‐derived phosphopeptide, N‐terminal acetyl (ITC, SPR, crystallography) or FAM‐Ahx (FA tracer), C‐terminal amide]
FA response / affinity with 14‐3‐3 proteins, all isoforms (in words) (all isoforms of 14‐3‐3): no response
